In data set [1] the target is T1, Par1 (thrombin) receptor (Homo sapiens, UniProt P25116).
T1 construct: endogenous in cells; host or cells: platelets (platelet-rich plasma; washed platelets from individual donors)
T1 sequence (P25116 22-425): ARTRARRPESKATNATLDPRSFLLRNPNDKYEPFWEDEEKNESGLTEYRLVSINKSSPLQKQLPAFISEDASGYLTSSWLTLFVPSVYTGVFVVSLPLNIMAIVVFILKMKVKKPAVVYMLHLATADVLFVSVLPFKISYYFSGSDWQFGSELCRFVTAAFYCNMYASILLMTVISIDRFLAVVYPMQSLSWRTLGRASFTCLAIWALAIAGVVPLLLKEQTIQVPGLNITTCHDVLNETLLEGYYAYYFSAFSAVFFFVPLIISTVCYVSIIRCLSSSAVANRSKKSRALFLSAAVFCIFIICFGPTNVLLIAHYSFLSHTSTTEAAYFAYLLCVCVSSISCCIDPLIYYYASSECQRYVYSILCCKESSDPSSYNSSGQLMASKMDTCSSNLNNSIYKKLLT
The data set is described as follows: SFLLRN-mediated granule secretion, platelet-rich plasma, luciferin-luciferase ATP readout (primary assay). The class given is cell-based. The conditions noted are these: two retests of the probe; platelet-rich plasma; read-out: IC50, SFLLRN-mediated granule secretion. The procedure: The compounds were tested in two independent IC50 determination experiments using the primary assay measuring SFLLRN-mediated granule secretion. For this assay, platelet-rich plasma is treated with putative inhibitors prior to activation by the SFLLRN peptide, which targets the Par1 (thrombin) receptor. Upon activation, platelets secrete dense granules, which are concentrated with ATP. Platelet activation and possible inhibition are monitored by a luciferin-luciferase assay (CellTiter-Glo without lysis reagent) to measure the ATP secreted from activated platelets. Luminescence measurements are made using a plate reader (Envision, PerkinElmer) capable of detecting luminescence.

In data set [2] the test system is platelets. The data set is described as follows: PMA- or Ca2+ ionophore-induced platelet activation (P-selectin, flow cytometry). The class given is cell-based, human. To be noted: washed platelets, 6 point dose curve. The procedure:
For these assays, the probe is incubated with washed platelets obtained from individual donors in a 6 point dose curve. Platelets are subsequently stimulated with either PMA or Ca2+ ionophore. After 15 minutes, phycoerythrin-labeled anti-P-selectin antibody (BD Biosciences) is added to the incubation mixture. Following a 20-minute incubation, a sample is analyzed by flow cytometry for staining of P-selectin.
(In flow cytometry, cells or beads pass a laser one at a time.)

Data set [3] has as its target T2, PAR4 (Homo sapiens, UniProt Q96RI0).
T2 construct: endogenous in cells; host or cells: platelets
T2 sequence (Q96RI0 18-385): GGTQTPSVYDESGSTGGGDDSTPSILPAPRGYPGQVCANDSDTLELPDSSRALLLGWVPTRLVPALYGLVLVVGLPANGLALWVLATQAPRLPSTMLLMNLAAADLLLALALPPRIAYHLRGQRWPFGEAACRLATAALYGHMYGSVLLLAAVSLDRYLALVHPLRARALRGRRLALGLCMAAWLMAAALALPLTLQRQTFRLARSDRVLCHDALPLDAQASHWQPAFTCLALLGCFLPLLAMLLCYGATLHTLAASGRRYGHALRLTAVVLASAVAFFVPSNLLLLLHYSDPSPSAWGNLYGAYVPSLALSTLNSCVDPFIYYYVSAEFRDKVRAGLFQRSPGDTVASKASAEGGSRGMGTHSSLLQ
The data set is described as follows: Platelet activation induced through PAR4. The class given is cell-based. To be noted: FIG. 1A. Here is the method: To confirm the specificity of compound 1 for PAR1, platelets were incubated with compound 1 and subsequently activated with a variety of platelet agonists. P-selectin surface expression was monitored to detect platelet activation. […] In contrast, an IC50 for inhibition of other agonists was not reached even at concentrations >30-fold its IC50 for PAR1-mediated secretion. To further evaluate whether PAR1 is the target of compound 1, we tested the ability of the compound to inhibit Ca^2+ flux in HEK293 cells overexpressing recombinant PAR1.

Data set [4] relates to Gα12 signaling downstream of PAR1. The data set is described as follows: PAR1-mediated transmembrane resistance (TER) in MDCK cells overexpressing Gα12. The class given is cell-based. The conditions noted are these: FIG. 3B. The text has this: (§1) This pattern of inhibition is consistent with that of an allosteric inhibitor. […] This observation raised the possibility that compound 1 blocks PAR1 signaling through Gαq (which mediates platelet aggregation downstream of PAR1), but not Gα12/13 (which mediates shape change downstream of PAR1). A previously identified PAR1 inhibitor, 3,5-difluoro aminoisoxazole (3,5-DFAI), inhibited both shape change and aggregation. Shape change that occurred in the presence of compound 1 was blocked by the Rho kinase inhibitor Y27632, confirming participation of Rho kinase downstream of Gα12/13 in compound-1-resistance shape change (FIG. 3A). […] PAR1-mediated decrease in TER in these cells is dependent on Gα12. […] In contrast, 3,5-DFAI inhibited SFLLRN-mediated decrease in TER (FIG. 3B) and compound 1 inhibited Gαq-mediated Ca^2+ flux in these MDCK cells (FIG. 3C).

Data set [5] in a line: Stability in mouse plasma. Format: in vitro ADME. The text has this: (§2) Since there are also situations in which longer term anticoagulation is desired, we performed further studies in the thrombus formation model to assess analogs of compound 1 that may have a more long-lived effect. […] This instability in mouse plasma may have contributed to its short half-life of efficacy in vivo.

Data set [6] in a line: Stability in human plasma. Format: in vitro ADME.
Text: as §2

Data set [7] addresses T3, PAR1 (Homo sapiens, UniProt P25116).
T3 sequence (P25116 22-425): T1 sequence (P25116 22-425)
The data set is described as follows: Ca2+ flux in HEK293 cells overexpressing recombinant PAR1. Format: cell-based. Also on record: expressed in transfected cells; host or cells: HEK293. The conditions noted are these: concentrations similar to those for inhibition of P-selectin expression; FIG. 1B. In general terms: Calcium flux is commonly read through the fluorescence of an indicator in the cells.

In data set [8] the target is T3, PAR1. Briefly: P-selectin surface expression on washed platelets stimulated with SFLLRN (flow cytometry). Details: endogenous in cells; host or cells: platelets (platelet-rich plasma; washed platelets from individual donors). Format: cell-based. Here is the method:
For this assay, the probe is incubated with washed platelets obtained from individual donors. Platelets are subsequently stimulated with 5 μM SFLLRN. After 15 minutes, phycoerythrin-labeled anti-P-selectin antibody (BD Biosciences) is added to the incubation mixture. Following a 20-minute incubation, a sample is analyzed by flow cytometry for staining of P-selectin.
P-selectin surface expression was monitored to detect platelet activation.

Data set [9] addresses T3, PAR1. Briefly: PAR1-mediated platelet aggregation and shape change. Format: cell-based. The conditions noted are these: FIG. 3A. Details: endogenous in cells; host or cells: platelets (platelet-rich plasma; washed platelets from individual donors).
Text: as §1

Values joined by “and” are separate entries in the source; they are usually repeats but may differ in a detail not shown here. Identical values can stand only once.

On to `CCCC(=O)Nc1cccc(NC(=O)c2ccccc2Br)c1` [Compound 1], for which, in data set [1], the IC50 (usually the midpoint of a concentration-inhibition curve) is 4.87 µM and 5.28 µM. Moreover, in data set [2], the “effect on Ca2+ ionophore-induced activation of platelets” value is “did not show any effect” and the “effect on PMA-induced activation of platelets” value was “did not show any effect”. Further, in [3], the “platelet activation through PAR4” value is “without inhibiting”. Moreover, the “PAR1-mediated (SFLLRN) change in TER” value in [4] is “failed to inhibit”. Moreover, in data set [5], the “remaining after 5 hour incubation in mouse plasma” value is listed as 1.7%. Moreover, the “stability in human plasma” value in data set [6] was “good stability”. Besides, the “changes in Ca2+ flux in HEK293 cells overexpressing recombinant PAR1” value in data set [7] is listed as “inhibits”. In addition, the “inhibition of the expression of P-selectin” value in data set [8] (1 μM compound, washed platelets, activation with 5 μM SFLLRN) is 90%. Besides, the concentration for half-maximal inhibition (IC50) in data set [8] (FIG. 1A, read-out: IC50, activation mediated through PAR1 (P-selectin surface expression)) was around 0.3 µM. Further, the “pattern of inhibition of PAR1-mediated platelet activation” value in data set [8] (varying concentrations of compound and SFLLRN, FIG. 2) is on record as “non-competitive inhibition”. For the same compound, in data set [9], the PAR1-mediated platelet aggregation result is “inhibited” and the “PAR1-mediated platelet shape change” value was “failed to inhibit”.
